In patent US6384058B1, “2,4,6-trisubstituted pryridines with estrogenic activity and methods for the solid phase synthesis thereof” (American Home Products Corporation, priority 1997, dated 2002):

How the values were obtained:
human estrogen receptor = molecular target: T1, human estrogen receptor (Homo sapiens, UniProt P03372); test: Estrogen Receptor Assay: 2×VIT ERE Transfection Assay (luciferase reporter in CHO cells); format: cell-based; details: 1 μM compound alone, 24 h, CHO cells stably transfected with human estrogen receptor, luciferase normalised to B-galactosidase, n=8
T1 construct: expressed in transfected cells; host or cells: Chinese Hamster Ovary (CHO) cells, stably transfected
T1 sequence (P03372 1-595): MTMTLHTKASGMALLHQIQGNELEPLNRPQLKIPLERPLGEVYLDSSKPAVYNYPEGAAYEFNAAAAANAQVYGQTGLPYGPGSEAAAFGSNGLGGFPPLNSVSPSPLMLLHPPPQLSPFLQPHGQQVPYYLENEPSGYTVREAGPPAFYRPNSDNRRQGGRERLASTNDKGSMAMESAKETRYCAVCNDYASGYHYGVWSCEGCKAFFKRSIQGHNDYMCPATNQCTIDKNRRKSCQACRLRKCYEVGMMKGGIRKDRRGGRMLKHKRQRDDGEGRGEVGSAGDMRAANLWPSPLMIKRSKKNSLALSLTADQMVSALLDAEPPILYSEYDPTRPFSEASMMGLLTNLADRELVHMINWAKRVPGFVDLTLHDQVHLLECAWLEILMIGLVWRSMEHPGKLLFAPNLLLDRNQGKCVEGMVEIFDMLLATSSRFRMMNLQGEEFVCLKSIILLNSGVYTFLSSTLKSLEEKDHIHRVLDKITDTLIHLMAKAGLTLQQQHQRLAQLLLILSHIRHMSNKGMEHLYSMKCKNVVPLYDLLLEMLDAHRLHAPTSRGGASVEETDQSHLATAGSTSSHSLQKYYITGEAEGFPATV
Description: Enhancement of luciferase gene expression in this model is dependent upon estrogen receptor (ER) interaction with a vitellogenin gene estrogen responsive element (ERE) capable of enhancing basal promoter activity. This is a sensitive and rapid methodology to assess estrogenic/antiestrogenic potency of compounds.
48 h prior to treatment the growth medium is replaced with DMEM lacking phenol red+10% dextran coated charcoal stripped FBS (treatment medium). Cells are plated at a density of 5000 cells/well in 96-well plates containing 200 μL of medium/well.
Calcium Phosphate Transfection: Reporter DNA (Promega plasmid pGL2 containing two tandem copies of the vitellogenin ERE in front of the minimal thymidine kinase promoter driving the luciferase gene) is combined with the B-galactosidase expression plasmid pCH110 (Pharmacia) and carrier DNA (pTZ18U) in the following ratio: 10 μg of reporter DNA, 5 μg of pCH110 DNA, 5 μg of pTZ18U, and 20 μg of DNA/1 mL of transfection solution. […] 20 μL of this mixture is added to each well of cells and remains on the cells for 16 h. […] Each treatment condition is performed on 8 wells (n=8) which are incubated for 24 h prior to luciferase assay.
Luciferase Assay: After 24 h exposure to compounds, the media is removed and each well is washed 2× with 125 μL of PBS lacking Mg++ and Ca++. After removing the PBS, 25 μL of Promega lysis buffer is added to each well and allowed to stand at room temperature for 15 min, followed by 15 min at −80 deg. C. and 15 min at 37 deg. C. 20 μL of lysate is tranferred to an opaque 96-well plate for luciferase activity evaluation and the remaining lysate (5 μL) is used for B-galactosidase activity evaluation (normalize transfection). The luciferan substrate (Promega) added is 100 μL aliquots to each well automatically by the luminometer and the light produced (relative light units) is read 10 seconds after addition. The data is logged and automatically sent to a JMP statistical program for analysis. A hard copy printout is also produced at the time of the assay.
B-galactosidase Assay: To the remaining 5 μL of lysate 45 μL of PBS is added. 50 μl of Promega B-galactosidase 2×assay buffer is added, mixed well and incubated at 37 deg. C. for 1 h. A plate containing a standard curve (0.1 to 1.5 milliunits in triplicate) is set up for each experimental run. The plates are analyzed on a Molecular Devices spectrophotometric plate reader at 410 nm. The optical densities for the unknowns are converted to milliunits of activity by mathematical extrapolation from the standard curve. Analysis of Results: The luciferase data is generated as relative light units (RLUs) accumulated during a 10 second measurement and is automatically transferred to a JMP (SAS Inc) file where background RLUs are subtracted. The B-galactosidase values are automatically imported into the file and these values are divided into the RLUs to normalize the data. The mean and standard deviation is determined from a n=8 for each treatment.

Row | Estrogenic activity at 1 μM (% of activity of 1 nM 17B-estradiol) (human estrogen receptor) | melting point | Structure (SMILES)
1 | 14% | 146 to 148 °C | Oc1ccccc1-c1cc(-c2ccc(F)c(F)c2)cc(-c2ccc(Cl)cc2)n1 [Example 1, 2-[6-(4-Chloro-phenyl)-4-(3,4-difluoro-phenyl)-pyridin-2-yl]-phenol]
2 | – | 165 to 167 °C | Oc1ccccc1-c1cc(-c2ccc(F)c(F)c2)cc(-c2ccc3ccccc3c2)n1 [Example 2, 2-[4-(3,4-Difluoro-phenyl)-6-naphthalen-2-yl-pyridin-2-yl]-phenol]
3 | 10% | 147 to 148 °C | Oc1ccccc1-c1cc(-c2ccc(F)c(F)c2)cc(-c2ccco2)n1 [Example 3, 2-[4-(3,4-Difluoro-phenyl)-6-furan-2-yl-pyridin-2-yl]-phenol]
4 | – | 187 to 188 °C | Oc1ccc(F)cc1-c1cc(-c2ccc(-c3ccccc3)cc2)cc(-c2ccc3ccccc3c2)n1 [Example 6, 2-(4-Biphenyl-4-yl-6-naphthalen-2-yl-pyridin-2-yl)-4-fluoro-phenol]
5 | 36% | – | Oc1cccc(-c2cc(C3CCCCC3)cc(-c3ccco3)n2)c1 [Example 10, 3-(4-Cyclohexyl-6-furan-2-yl-pyridin-2-yl)-phenol]

The next lines start with the molecule.

Row | Structure (SMILES) | Estrogenic activity at 1 μM (% of activity of 1 nM 17B-estradiol) (human estrogen receptor) | melting point
6 | Oc1ccccc1-c1cc(-c2ccc3c(c2)OCO3)cc(-c2ccc3ccccc3c2)n1 [Example 4, 2-(4-Benzo[1,3]dioxol-5-yl-6-naphthalen-2-yl-pyridin-2-yl)-phenol] | 22% | 195 to 196 °C
7 | Oc1ccccc1-c1cc(-c2ccc3c(c2)OCO3)cc(-c2ccsc2)n1 [Example 5, 2-(4-Benzo[1,3]dioxol-5-yl-6-thiophen-3-yl-pyridin-2-yl)-phenol] | – | 120 to 121 °C
8 | Oc1ccc(F)cc1-c1cc(-c2ccc(-c3ccccc3)cc2)cc(-c2ccncc2)n1 [Example 7, 2-(4-Biphenyl-4-yl-[2,4′]bipyridinyl-6-yl)-4-fluoro-phenol] | 6% | –
9 | Oc1cccc(-c2cc(-c3ccc(-c4ccccc4)cc3)cc(-c3ccc4ccccc4c3)n2)c1 [Example 9, 3-(4-Biphenyl-4-yl-6-naphthalen-2-yl-pyridin-2-yl)-phenol] | – | 174 to 175 °C
